Data published in patent US11744816B2, “Fixed dose combinations and formulations comprising ETC1002 and ezetimibe and methods of treating or reducing the risk of cardiovascular disease” (Esperion Therapeutics, Inc., priority 2015, dated 2023).

Key:
[1] = test system: hypercholesterolemic patients; experiment: Phase 2b double-blind trial: safety, treatment-emergent adverse events and laboratory abnormalities
Experimental: The study population included both statin-tolerant and statin-intolerant participants. Statin intolerance was defined as the inability to tolerate ≥2 statins because of muscle-related symptoms such as pain, weakness, or cramping that began or increased during statin therapy and resolved on statin discontinuation. At least 1 statin must have been administered at the lowest approved daily dose, defined as rosuvastatin 5 mg, atorvastatin 10 mg, simvastatin 10 mg, lovastatin 20 mg, pravastatin 40 mg, fluvastatin 40 mg, or pitavastatin 2 mg. Treatment with less than the lowest approved daily dose of a statin (i.e., skipping days) was considered equivalent to not tolerating 1 statin at the lowest approved daily dose.
Patients underwent a 5-week washout of all lipid-regulating drugs and dietary supplements and abstained from these drugs and supplements throughout the study. Patients also underwent a 5-week patient-only-blinded placebo run-in during the screening period (week −5 to week 0). This single-blind placebo run-in period was used to eliminate patients with muscle-related AEs during placebo treatment. Patients reporting new or worsening, unexplained muscle-related AEs during this run-in period were excluded from the study.
Patients were stratified (1:1) by history of statin intolerance and randomized at week 0 in a 4:4:4:1:1 ratio to once-daily treatment with capsules containing ETC-1002 120 mg, ETC-1002 180 mg, EZE, ETC-1002 120 mg plus EZE, or ETC-1002 180 mg plus EZE.
The safety of ETC-1002 was assessed using treatment-emergent AEs; hematology, serum chemistry, and urinalysis laboratory values; physical examination findings, vital sign measurements, electrocardiogram (ECG) readings; weight; and ankle and waist circumference measurements. AEs were coded using the Medical Dictionary for Regulatory Activities version 16.0 and evaluated by the investigator for severity and relation to study drug. Muscle-related AEs were defined as those from the system organ class of musculoskeletal and connective tissue disorders, except for those that were not obviously muscle related Terms included in the muscle-related AFE analysis were selected from this system organ class after database lock and before unblinding.
Safety analyses were performed on the safety population, which included randomized patients who received at least 1 dose of study drug. Baseline patient characteristics were summarized for the safety population by treatment group and statin-tolerance subgroup.
Muscle-related AEs also were summarized by statin-tolerance subgroup.

[2] = test system: hypercholesterolemic patients; experiment: Phase 2b double-blind trial: percent changes from baseline to week 12 in lipids and CRP; assay type: in vivo, human
Experimental: LDL-C was calculated using the Friedewald equation.
The primary endpoint was the percent change from baseline to week 12 in calculated LDL-C in patients treated with ETC-1002 monotherapy versus those treated with EZE alone. Secondary endpoints included the dose-response relationship between ETC-1002 and the percent change in LDL-C from baseline to week 12, the percent change in LDL-C from baseline to week 12 in patients treated with ETC-1002 plus EZE versus those treated with EZE alone, and the percent change from baseline to week 12 for all treatment groups in LDL particle number, apolipoprotein B, total cholesterol, non-high-density lipoprotein cholesterol (non-HDL-C), HDL-C, HDL particle number, apolipoprotein A-I, triglycerides, very-low-density lipoprotein (VLDL) particle number, and high-sensitivity C-reactive protein (CRP). Lipoprotein particle number was measured using nuclear magnetic resonance […].
An analysis of covariance was used to compare each ETC-1002 treatment group with EZE monotherapy for each of the efficacy endpoints. The primary model included the effects of treatment and statin intolerance and the baseline value as a covariate. Baseline was defined as the mean of values from weeks −1 and 0 for LDL-C, non-HDL-C, total cholesterol, HDL-C, and triglycerides. For all other lipid and biomarker measures, baseline was defined as the last value before the first dose of study drug. Missing values at week 12 were imputed using the last-observation-carried-forward procedure. When LDL-C could not be calculated (i.e., triglycerides >400 mg/dL), beta-quantification measurements were used to determine LDL-C values. Least-squares (LS) means and standard errors were obtained for each treatment group; differences in LS means and p-values were obtained for the treatment comparisons. Graphical methods (e.g., normal probability plot and histogram of residuals, plot of residuals vs. predicted values) or analytical methods (e.g., Shapiro-Wilk test), or both, were used to assess the model assumptions. Because of departures from normality observed in the parameters of triglycerides, CRP, and VLDL particle number, nonparametric analyses were performed for these measures, with p-values obtained from the Wilcoxon rank-sum test and median values presented.
Percent changes from baseline in LDL-C also were summarized by statin-tolerance subgroup. To assess the dose-response relationship for ETC-1002 monotherapy, the primary analysis of covariance model was used for the comparison of the ETC-1002 120 mg and ETC-1002 180 mg. Statistical testing of the efficacy endpoints was 2-sided and conducted at the 5% level of significance with no adjustment for multiple comparisons.

[3] = EZE 10 mg once daily, 12 weeks, safety population
[4] = EZE 10 mg once daily, 12 weeks, statin-intolerant patients
[5] = EZE 10 mg once daily, 12 weeks, statin-tolerant patients
[6] = EZE 10 mg once daily, 12 weeks, mITT, LS mean ± SE

In the case of `O=C1[C@H](CC[C@H](O)c2ccc(F)cc2)[C@@H](c2ccc(O)cc2)N1c1ccc(F)cc1` [EZE, (3R,4S)-1-(4-fluorophenyl)-3-[(3S)-3-(4-fluorophenyl)-3-hydroxypropyl]-4-(4-hydroxyphenyl)azetidin-2-one, reference compound], the “Alanine aminotransferase or aspartate aminotransferase, or both, increased >3 times the upper limit of normal at any measurement” value ([1]; EZE) is reported as 1 patients, the “Serious AEs reported (events)” value ([1]; EZE) is reported as “transient ischemic attack” and the “Most common AEs: ALT increased” value [1, 3] is reported as 1 (1%) n (%). For the same compound, the “Most common AEs: AST increased” value [1, 3] was 0 n (%), the “Most common AEs: Arthralgia” value [1, 3] was 4 (4%) n (%) and the “Most common AEs: Back pain” value [1, 3] was 8 (8%) n (%). For the same compound, the “Most common AEs: Blood CK increased” value [1, 3] was 1 (1%) n (%), the “Most common AEs: Constipation” value [1, 3] was 1 (1%) n (%) and the “Most common AEs: Headache” value [1, 3] was 1 (1%) n (%). The “Most common AEs: Myalgia” value [1, 3] was 6 (6%) n (%), the “Most common AEs: Nasopharyngitis” value [1, 3] was 4 (4%) n (%) and the “Most common AEs: Upper respiratory tract infection” value [1, 3] was 1 (1%) n (%). For the same compound, the “Most common AEs: Urinary tract infection” value [1, 3] was 6 (6%) n (%), the “Treatment-emergent AEs: Any AE(s)” value [1, 3] was 53 (54%) n (%) and the “Treatment-emergent AEs: Discontinuation due to AE(s)” value [1, 3] was 8 (8%) n (%). For the same compound, the “Treatment-emergent AEs: Serious AE(s)” value [1, 3] was 1 (1%) n (%), the “Treatment-emergent AEs: Study drug-related AE(s)” value [1, 3] was 19 (19%) n (%) and the “Any muscle-related AE” value [1, 4] was 9 (18%) n (%). The “Muscle-related AE leading to discontinuation” value [1, 4] was 5 (10%) n (%), the “Muscle-related AEs: Muscle spasms” value [1, 4] was 1 (2%) n (%) and the “Muscle-related AEs: Muscular weakness” value [1, 4] was 1 (2%) n (%). For the same compound, the “Muscle-related AEs: Musculoskeletal chest pain” value [1, 4] was 0 n (%), the “Muscle-related AEs: Musculoskeletal stiffness” value [1, 4] was 1 (2%) n (%) and the “Muscle-related AEs: Myalgia” value [1, 4] was 6 (12%) n (%). For the same compound, the “Muscle-related AEs: Pain in extremity” value [1, 4] was 3 (6%) n (%), the “Muscle-related AEs: Sensation of heaviness” value [1, 4] was 1 (2%) n (%) and the “Any muscle-related AE” value [1, 5] was 3 (6%) n (%). The “Muscle-related AE leading to discontinuation” value [1, 5] was 1 (2%) n (%), the “Muscle-related AEs: Muscle spasms” value [1, 5] was 2 (4%) n (%) and the “Muscle-related AEs: Musculoskeletal pain” value [1, 5] was 1 (2%) n (%). For the same compound, the “Muscle-related AEs: Myalgia” value [1, 5] was 0 n (%), the “Myalgia, patients affected” value ([1]; EZE alone, entire study population) was 6% and the “Percent change from baseline to week 12 in Apolipoprotein A-I” value [2, 6] was 2.0 ± 1.1%. For the same compound, the “Percent change from baseline to week 12 in Apolipoprotein B” value [2, 6] was −15.2 ± 1.2%, the “Percent change from baseline to week 12 in HDL particle number” value [2, 6] was 6.7 ± 1.3% and the “Percent change from baseline to week 12 in HDL-C” value [2, 6] was 5.0 ± 1.4%. The “Percent change from baseline to week 12 in LDL particle number” value [2, 6] was −12.7 ± 1.7%, the “Percent change from baseline to week 12 in LDL-C” value [2, 6] was −21.2 ± 1.3% and the “Percent change from baseline to week 12 in Non-HDL-C” value [2, 6] was −18.7 ± 1.2%. For the same compound, the “Percent change from baseline to week 12 in Total cholesterol” value [2, 6] was −14.3 ± 0.9%, the “Percent change from baseline to week 12 in VLDL particle number” value ([2]; EZE 10 mg once daily, 12 weeks, mITT, median (interquartile range)) was −12.6 (63.4) % and the CRP reduction ([2]; EZE alone) was 10%. It also gave an HDL-C increase ([2]; EZE alone, week 12) of 5%.
